Patent US11377442B2, “Small molecule agonists and antagonists of NR2F6 activity” (ZANDER THERAPEUTICS, INC., priority 2016, dated 2022)

Legend:
Assay type in all cases: cell-based
NR2F6 = target: T1, NR2F6 (Homo sapiens, UniProt P10588); assay: NR2F6 agonist screening, Firefly signal cmpd/DMSO; settings: for Firefly F4, cmpd/DMSO (mean): clone F4
T1 construct: expressed in transfected cells; also transient transfection
T1 sequence (P10588 1-404): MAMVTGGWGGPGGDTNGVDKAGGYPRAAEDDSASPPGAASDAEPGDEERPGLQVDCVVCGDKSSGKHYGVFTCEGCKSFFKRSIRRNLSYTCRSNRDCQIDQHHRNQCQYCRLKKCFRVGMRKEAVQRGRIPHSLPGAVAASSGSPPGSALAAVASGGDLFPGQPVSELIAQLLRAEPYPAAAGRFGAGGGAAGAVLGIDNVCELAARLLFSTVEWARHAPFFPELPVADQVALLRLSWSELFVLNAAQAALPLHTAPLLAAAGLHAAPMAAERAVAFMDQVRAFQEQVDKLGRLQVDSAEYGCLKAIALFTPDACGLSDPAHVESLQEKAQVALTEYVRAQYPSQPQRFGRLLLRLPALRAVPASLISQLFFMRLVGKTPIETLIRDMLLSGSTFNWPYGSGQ

Renilla = Renilla signal in NR2F6 agonist screening, cmpd/DMSO; settings: Renilla, clone F4, read-out: Renilla F4, cmpd/DMSO (mean)
ERα [1] = target: T2, ERα (Homo sapiens, UniProt P03372); assay: Counterscreening, Firefly signal with ERα transient transfection (Firefly_ERa); settings: 10 uM
T2 construct: expressed in transfected cells
T2 sequence (P03372 1-595): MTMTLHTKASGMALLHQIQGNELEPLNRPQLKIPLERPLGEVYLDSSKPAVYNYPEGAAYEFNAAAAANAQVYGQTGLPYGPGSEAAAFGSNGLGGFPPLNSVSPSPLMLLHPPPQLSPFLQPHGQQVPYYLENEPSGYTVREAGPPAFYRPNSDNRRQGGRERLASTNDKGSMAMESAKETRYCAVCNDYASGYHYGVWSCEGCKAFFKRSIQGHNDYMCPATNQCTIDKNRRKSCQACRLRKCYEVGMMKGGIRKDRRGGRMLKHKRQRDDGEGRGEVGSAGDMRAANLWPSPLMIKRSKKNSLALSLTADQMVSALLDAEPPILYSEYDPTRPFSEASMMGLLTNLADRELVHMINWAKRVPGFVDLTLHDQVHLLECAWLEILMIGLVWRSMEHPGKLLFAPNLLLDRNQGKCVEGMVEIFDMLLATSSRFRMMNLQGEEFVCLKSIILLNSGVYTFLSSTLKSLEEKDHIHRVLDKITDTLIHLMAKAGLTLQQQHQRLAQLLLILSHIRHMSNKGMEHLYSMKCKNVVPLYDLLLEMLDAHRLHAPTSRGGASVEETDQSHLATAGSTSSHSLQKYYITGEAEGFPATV
Description: The methodology for screening candidate compounds as NR2F6 agonists was as follows: For primary screening, hit criteria was ACT %>DMSO control+5*SD (DSO control) at 10 μM, or any compound with S/B>2. For rescreening, hit criteria was ACT %>DMSO control+3*SD (DSO control) in each replicate at 10 μM. For counterscreening, hit criteria was mean ACT<DMSO control+3*SD (DMSO control) with ERα transient transfection in duplicate at 10 μM.

Renilla_ERa = assay: Renilla signal in ERα counterscreen (Renilla_ERa); settings: read-out: Renilla ERalpha transient, cmpd/DMSO (mean)
ERα [2] = target: T2, ERα; assay: Counterscreening, Firefly signal with ERα transient transfection (Firefly_ERa)

Structure (SMILES)	Firefly F4, cmpd/DMSO (mean) (NR2F6; 2 uM)	Firefly F4, cmpd/DMSO (mean) (NR2F6; 10 uM)	Firefly F4, cmpd/DMSO (mean) (NR2F6; 40 uM)	activity (in words) (NR2F6; screening result)	fold induction at 2 µM (Renilla)	fold induction at 10 µM (Renilla)	fold induction at 40 µM (Renilla)	Firefly ERalpha transient, cmpd/DMSO (mean) (ERα [1])	fold induction at 2 µM (Renilla_ERa)	fold induction at 10 µM (Renilla_ERa)	fold induction at 40 µM (Renilla_ERa)	Firefly ERalpha transient, cmpd/DMSO (mean) (ERα [2]; 2 uM)	Firefly ERalpha transient, cmpd/DMSO (mean) (ERα [2]; 40 uM)
CCOC(=O)c1cnc2cc(C)c(C)cc2c1NCCCN(C)C [Compound Z34]	1.6	3.8	0.7	particularly good activity	1.2	0.8	0.6	10.3	1.5	1	0.7	2.0	0.9
CCOC(=O)c1cnc2c(Cl)cc(Cl)cc2c1NCCCN(C)C [Compound Z35]	1.9	1.5	1.2	–	1.1	2	0.7	2.2	1.1	1.3	0.9	2.6	7.2
CCOC(=O)c1cnc2c(Cl)cc(Cl)cc2c1NCCCN1CCCC1 [Compound Z36]	0.7	1.8	0.7	–	1	1.8	0.6	1.6	1.2	1.6	0.8	1.2	5.8
CCOC(=O)c1cnc2c(Cl)cc(Cl)cc2c1NCCCN1CCCCC1 [Compound Z37]	1.0	1.4	0.7	–	1	0.9	0.5	1.5	1	1.7	0.7	1.1	1.2
COc1ccc2nc(C(F)(F)F)c(C#N)c(NCc3ccc(Cl)cc3)c2c1 [Compound Z38]	0.5	0.8	0.6	–	0.7	0.6	0.4	0.5	0.9	0.6	0.6	0.9	0.5
COc1ccc2nc(C(F)(F)F)c(C#N)c(NCCc3ccc(Cl)cc3)c2c1 [Compound Z39]	0.8	1.0	0.7	–	0.7	0.5	0.5	0.5	1.1	0.6	0.6	1.2	0.8
COc1ccc2nc(C(F)(F)F)c(C#N)c(NCCOc3ccc(Cl)cc3)c2c1 [Compound Z40]	0.8	0.7	0.8	–	0.7	0.6	0.5	0.3	1	0.7	0.6	1.0	1.0
COc1ccc2nc(C(F)(F)F)c(C#N)c(N3CCN(C)CC3)c2c1 [Compound Z41]	1.0	1.1	1.7	–	0.7	0.6	0.6	1.4	1	1.1	0.8	0.9	1.6
Cc1ccc(CCCNc2c(C#N)c(C(F)(F)F)nc3ccc(Oc4ccccc4)cc23)cc1 [Compound Z42]	0.9	0.9	0.6	–	1.2	0.9	0.7	1.8	1.1	0.9	0.7	1.5	1.1
N#Cc1c(C(F)(F)F)nc2ccc(Cl)cc2c1N1CCOCC1 [Compound Z43]	1.3	0.8	0.8	–	1	0.9	0.7	0.9	1	1	0.9	1.4	1.6
COc1ccc(-c2cc3n(n2)C(N)=C(C#N)C(c2c[nH]c4ccccc24)(C(F)(F)F)N3)cc1OC (stereo not shown) [Compound Z44]	0.8	0.8	0.4	–	1.7	1.5	0.3	1.2	1.1	0.9	0.5	1.2	1.0
